Columns and labels:
RARα = target: T1, RARα (Homo sapiens, UniProt P10276); test: ligand binding assay, RARα; conditions: RARα receptor subtype; read-out: RAR Kd (nM) α
T1 sequence (P10276 1-462): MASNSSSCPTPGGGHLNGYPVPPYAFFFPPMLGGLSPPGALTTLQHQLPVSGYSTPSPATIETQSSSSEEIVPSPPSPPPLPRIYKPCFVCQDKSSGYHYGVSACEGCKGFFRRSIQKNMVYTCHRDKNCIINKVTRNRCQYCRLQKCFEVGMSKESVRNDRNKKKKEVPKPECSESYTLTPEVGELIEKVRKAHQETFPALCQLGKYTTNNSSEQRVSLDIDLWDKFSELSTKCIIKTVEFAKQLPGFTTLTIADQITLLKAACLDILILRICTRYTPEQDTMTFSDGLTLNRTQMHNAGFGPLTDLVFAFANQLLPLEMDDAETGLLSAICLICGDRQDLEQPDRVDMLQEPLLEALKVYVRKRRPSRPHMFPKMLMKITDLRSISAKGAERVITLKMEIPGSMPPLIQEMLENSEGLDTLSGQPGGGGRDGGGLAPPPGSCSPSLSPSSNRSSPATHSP
Description: (§1) A holoreceptor transactivation assay and a ligand binding assay which measure the antagonist/agonist like activity of the compounds of the invention, or their ability to bind to the several retinoid receptor subtypes, respectively, are described in published PCT Application No. WO WO93/11755 (particularly on pages 30-33 and 37-41) published on Jun. 24, 1993, the specification of which is also incorporated herein by reference. A detailed experimental procedure for holoreceptor transactivations has been described by Heyman et al. Cell 68, 397-406, (1992); Allegretto et al. J. Biol. Chem. 268, 26625-26633, and Mangelsdorf et al. The Retinoids: Biology, Chemistry and Medicine, pp 319-349, Raven Press Ltd., New York, which are expressly incorporated herein by reference. The results obtained in this assay are expressed in EC50 numbers, as they are also in the chimeric receptor transactivation assay. The results of ligand binding assay are expressed in Kd numbers. (See Cheng et al. Biochemical Pharmacology Vol. 22 pp 3099-3108, expressly incorporated herein by reference.)

RARβ = target: T2, RARβ (Homo sapiens, UniProt P10826); test: ligand binding assay, RARβ; conditions: RARβ receptor subtype; read-out: RAR Kd (nM) β
T2 sequence (P10826 1-455): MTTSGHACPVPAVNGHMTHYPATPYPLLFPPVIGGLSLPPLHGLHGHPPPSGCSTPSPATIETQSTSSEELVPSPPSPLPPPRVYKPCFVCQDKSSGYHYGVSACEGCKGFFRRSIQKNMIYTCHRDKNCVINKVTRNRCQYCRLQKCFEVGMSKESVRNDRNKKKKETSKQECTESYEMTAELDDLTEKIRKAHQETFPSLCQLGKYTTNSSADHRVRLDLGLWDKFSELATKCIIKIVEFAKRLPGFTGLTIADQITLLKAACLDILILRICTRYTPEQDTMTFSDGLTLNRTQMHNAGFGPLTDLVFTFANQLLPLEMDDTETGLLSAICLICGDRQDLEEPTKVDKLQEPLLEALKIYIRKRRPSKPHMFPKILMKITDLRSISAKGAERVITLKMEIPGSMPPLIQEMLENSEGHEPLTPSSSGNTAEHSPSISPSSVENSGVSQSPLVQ
Description: as §1

RARγ = target: T3, RARγ (Homo sapiens, UniProt P13631); test: ligand binding assay, RARγ; conditions: RARγ receptor subtype; read-out: RAR Kd (nM) γ
T3 sequence (P13631 1-454): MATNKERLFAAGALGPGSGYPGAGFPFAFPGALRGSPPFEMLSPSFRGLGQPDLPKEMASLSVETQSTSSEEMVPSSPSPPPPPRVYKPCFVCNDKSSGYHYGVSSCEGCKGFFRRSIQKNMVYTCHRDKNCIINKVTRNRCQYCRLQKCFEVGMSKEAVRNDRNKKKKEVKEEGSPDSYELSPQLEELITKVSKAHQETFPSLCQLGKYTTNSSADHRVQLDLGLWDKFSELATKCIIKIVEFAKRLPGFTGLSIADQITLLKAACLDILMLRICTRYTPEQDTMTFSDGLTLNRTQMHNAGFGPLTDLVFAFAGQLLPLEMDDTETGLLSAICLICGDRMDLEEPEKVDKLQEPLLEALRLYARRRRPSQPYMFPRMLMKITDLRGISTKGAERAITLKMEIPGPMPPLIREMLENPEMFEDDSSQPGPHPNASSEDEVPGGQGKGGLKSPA
Description: as §1

Row | SMILES | Kd (RARα) | Kd (RARβ) | Kd (RARγ)
1 | CC12CCC(C)(CC1)c1c2cc(C(=O)Nc2cc(F)c(C(=O)O)c(F)c2)c(O)c1Br [Compound 14, 4-[(6-Bromo-5-hydroxy-1,8-dimethyl-tricyclo[6.2.20^2,7]dodeca-2(7),3,5-trien-4-carbonyl)amino]-2,6-difluorobenzoic Acid] | 84 nM | > 10000 nM | > 10000 nM
2 | CC12CCC(C)(CC1)c1c2cc(C(=O)Nc2ccc(C(=O)O)c(F)c2)c(O)c1Br [Compound 10, 4-[(6-Bromo-5-hydroxy-1,8-dimethyl-tricyclo[6.2.20^2,7]dodeca-2(7),3,5-trien-4-carbonyl)amino]-2-fluorobenzoic Acid] | 32 nM | > 10000 nM | > 10000 nM
3 | CC12CCC(C)(CC1)c1cc(C(=O)Nc3ccc(C(=O)O)c(F)c3)c(O)cc12 [Compound 8, 2-Fluoro-4-[(5-hydroxy-1,8-dimethyl-tricyclo[6.2.20^2,7]dodeca-2(7),3,5-trien-4-carbonyl)amino]benzoic Acid] | 53 nM | 7200 nM | > 10000 nM

Source: patent US6620963B1, “TRICYCLO[6.2.202,7]DODECA-2(7),3,5-TRIEN-4-CARBONYLAMINO-PHENYL AND TRICYCLO[6.2.202,7]DODECA-2(7),3,5-TRIEN-4-CARBONYLAMINO-HETEROARYL AND RELATED COMPOUNDS HAVING RARα RECEPTOR SELECTIVE BIOLOGICAL ACTIVITY” (Allergan, Inc., priority 2002, dated 2003)
